Results taken from the supplement of paper PMC11061612.

Experiments:
Test in all cases: combination Emax (second highest fraction inhibited in the dose matrix, 72 h); higher = more inhibition; extreme values may be limits of the assay
[1] = test system: NCCIT (Other Solid Carcinomas)
Procedure, shortened: (§1)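 Cell lines grown in DMEM/F12 or RPMI with 10% FBS were plated in 1536-well plates and held 24 hours at 37°C, 5% CO2 before 72 hours of exposure to two-drug dose matrices, with DMSO typically at 0.2%. CellTiter-Glo 2.0 luminescence gave viability, which was converted to inhibition. Vehicle wells were set to 0 and blank wells to 1. Combination Emax is the second-highest inhibition in the matrix, and Bliss excess is the observed combination effect minus the expected EA + EB − EA·EB, where EA and EB are the single-agent effects.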

[2] = test system: NCI-H929 (Plasma Cell Myeloma)
Procedure, shortened: as §1

[3] = test system: CHSA8926 (Chondrosarcoma)
Procedure, shortened: as §1

[4] = test system: SU-DHL-5 (B-Cell Non-Hodgkin's Lymphoma)
Procedure, shortened: as §1

[5] = test system: MOG-G-CCM (Low Grade Glioma)
Procedure, shortened: as §1

[6] = test system: 8505C (Thyroid Gland Carcinoma)
Procedure, shortened: as §1

SJSA-1 (Osteosarcoma) = test system: SJSA-1 (Osteosarcoma)
Procedure, shortened: as §1

[7] = test system: T-T (Esophageal Squamous Cell Carcinoma)
Procedure, shortened: as §1

[8] = test system: NCI-H3122 (Lung Adenocarcinoma)
Procedure, shortened: as §1

[9] = test system: HCC1419 (Breast Carcinoma)
Procedure, shortened: as §1

[10] = test system: KMS-12-BM (Plasma Cell Myeloma)
Procedure, shortened: as §1

[11] = test system: JHH-4 (Hepatocellular Carcinoma)
Procedure, shortened: as §1

[12] = test system: CW-2 (Colorectal Carcinoma)
Procedure, shortened: as §1

G-361 (Melanoma) = test system: G-361 (Melanoma)
Procedure, shortened: as §1

[13] = test system: KU812 (Chronic Myelogenous Leukemia)
Procedure, shortened: as §1

M059J (Glioblastoma) = test system: M059J (Glioblastoma)
Procedure, shortened: as §1

RD (Rhabdomyosarcoma) = test system: RD (Rhabdomyosarcoma)
Procedure, shortened: as §1

[14] = test system: NCI-H520 (Squamous Cell Lung Carcinoma)
Procedure, shortened: as §1

[15] = test system: SK-GT-4 (Esophageal Adenocarcinoma)
Procedure, shortened: as §1

[16] = test system: KYSE-270 (Esophageal Squamous Cell Carcinoma)
Procedure, shortened: as §1

Compound	combination Emax [1]	combination Emax [2]	combination Emax [3]	combination Emax [4]	combination Emax [5]	combination Emax [6]	combination Emax (SJSA-1 (Osteosarcoma))	combination Emax [7]	combination Emax [8]	combination Emax [9]	combination Emax [10]	combination Emax [11]	combination Emax [12]	combination Emax (G-361 (Melanoma))	combination Emax [13]	combination Emax (M059J (Glioblastoma))	combination Emax (RD (Rhabdomyosarcoma))	combination Emax [14]	combination Emax [15]	combination Emax [16]
CN(C)CCCOc1ccc(-c2ccc3ncc4c(c3c2)n(C2CCOCC2)c(=O)n4C)cn1 [AZD0156] + C=CCn1c(=O)c2cnc(Nc3ccc(N4CCN(C)CC4)cc3)nc2n1-c1cccc(C(C)(C)O)n1 [AZD1775] (first compound max 1 µM, partner max 1 µM)	0.858	0.675	0.49	0.977	0.4	0.126	0.17	0.377	0.765	0.104	0.948	0.428	0.292	0.564	0.789	0.628	0.401	0.789	0.4	0.676
CN(C)CCCOc1ccc(-c2ccc3ncc4c(c3c2)n(C2CCOCC2)c(=O)n4C)cn1 [AZD0156] + CCN(CCO)CCCOc1ccc2c(Nc3cc(CC(=O)Nc4cccc(F)c4)[nH]n3)ncnc2c1 [AZD2811] (first compound max 1 µM, 7x7, partner max 1 µM)	0.17	0.815	0.214	0.931	0.367	0.102	0.123	0.0991	0.446	0.118	0.495	0.095	0.123	0.256	0.584	0.338	0.0353	0.458	0.192	0.0944
CN(C)CCCOc1ccc(-c2ccc3ncc4c(c3c2)n(C2CCOCC2)c(=O)n4C)cn1 [AZD0156] + C[C@@H]1COCCN1C2=NC(=NC(=C2)C3(CC3)[S@](=N)(=O)C)C4=C5C=CNC5=NC=C4 [AZD6738] (first compound max 1 µM, 7x7, partner max 10 µM)	0.656	0.778	0.336	1	0.413	0.24	0.325	0.659	0.746	0.159	1	0.133	0.543	0.628	0.735	0.637	0.252	0.682	0.661	0.914
CN(C)CCCOc1ccc(-c2ccc3ncc4c(c3c2)n(C2CCOCC2)c(=O)n4C)cn1 [AZD0156] + O=C(c1cc(Cc2n[nH]c(=O)c3ccccc23)ccc1F)N1CCN(C(=O)C2CC2)CC1 [Olaparib] (first compound max 3 µM, partner max 3 µM)	0.194	0.863	0.467	0.794	0.289	0.392	0.331	0.346	0.251	0.187	0.438	0.22	0.177	0.267	0.64	0.318	0.238	0.473	0.37	0.343
C=CCn1c(=O)c2cnc(Nc3ccc(N4CCN(C)CC4)cc3)nc2n1-c1cccc(C(C)(C)O)n1 [AZD1775] + C1CN(CCC1(C(=O)N[C@@H](CCO)C2=CC=C(C=C2)Cl)N)C3=NC=NC4=C3C=CN4 [Capivasertib] (first compound max 3 µM, partner max 3 µM)	0.963	0.981	0.578	0.99	0.748	0.741	0.634	0.618	0.622	0.282	0.984	0.439	0.522	0.724	0.912	0.826	0.797	0.795	0.596	0.85
C=CCn1c(=O)c2cnc(Nc3ccc(N4CCN(C)CC4)cc3)nc2n1-c1cccc(C(C)(C)O)n1 [AZD1775] + C[C@@H]1COCCN1C2=NC(=NC(=C2)C3(CC3)[S@](=N)(=O)C)C4=C5C=CNC5=NC=C4 [AZD6738] (first compound max 1 µM, partner max 10 µM)	0.905	0.713	0.461	1	0.682		0.393	0.73	0.872	0.221	1	0.498	0.682	0.676	0.849	0.777	0.655	0.86	0.722	1
C=CCn1c(=O)c2cnc(Nc3ccc(N4CCN(C)CC4)cc3)nc2n1-c1cccc(C(C)(C)O)n1 [AZD1775] + O=C(c1cc(Cc2n[nH]c(=O)c3ccccc23)ccc1F)N1CCN(C(=O)C2CC2)CC1 [Olaparib] (first compound max 1 µM, partner max 10 µM)	0.759	0.473	0.455	1	0.456	0.319	0.253	0.455	0.736	0.118	0.905	0.307	0.392	0.564	0.816	0.618	0.461	0.833	0.363	0.7
CCN(CCO)CCCOc1ccc2c(Nc3cc(CC(=O)Nc4cccc(F)c4)[nH]n3)ncnc2c1 [AZD2811] + C=CCn1c(=O)c2cnc(Nc3ccc(N4CCN(C)CC4)cc3)nc2n1-c1cccc(C(C)(C)O)n1 [AZD1775] (first compound max 1 µM, partner max 1 µM)	0.781	0.323	0.455	1	0.377	0.188	0.289	0.303	0.627	0.0861	0.944	0.355	0.274	0.477	0.725	0.553	0.347	0.674	0.363	0.63
CCN(CCO)CCCOc1ccc2c(Nc3cc(CC(=O)Nc4cccc(F)c4)[nH]n3)ncnc2c1 [AZD2811] + C[C@@H]1COCCN1C2=NC(=NC(=C2)C3(CC3)[S@](=N)(=O)C)C4=C5C=CNC5=NC=C4 [AZD6738] (first compound max 1 µM, 7x7, partner max 10 µM)	0.561	0.641	0.332	1	0.492	0.278	0.289	0.42	0.621	0.0919	0.941	0.0985	0.524	0.441	0.799	0.646	0.252	0.663	0.583	0.764
CCN(CCO)CCCOc1ccc2c(Nc3cc(CC(=O)Nc4cccc(F)c4)[nH]n3)ncnc2c1 [AZD2811] + O=C(c1cc(Cc2n[nH]c(=O)c3ccccc23)ccc1F)N1CCN(C(=O)C2CC2)CC1 [Olaparib] (first compound max 1 µM, 7x7, partner max 10 µM)	0.226	0.292	0.3	1	0.285	0.212	0.17	0.212	0.271	0.115	0.34	0.0395	0.162	0.34	0.678	0.413	0.19	0.345	0.223	0.322
CN(CCO)CC[C@H](CSc1ccccc1)Nc1ccc(S(=O)(=O)NC(=O)c2ccc(N3CCC([C@@H](O)c4ccccc4-c4ccc(Cl)cc4)CC3)cc2)cc1S(=O)(=O)C(F)(F)F [AZD4320] + C1CN(CCC1(C(=O)N[C@@H](CCO)C2=CC=C(C=C2)Cl)N)C3=NC=NC4=C3C=CN4 [Capivasertib] (first compound max 1 µM, 7x7, partner max 3 µM)	0.378	0.969	0.579	0.956	0.528	0.135	0.392	0.199	0.285	0.879	1	0.0846	0.158	0.234	0.737	0.486	0.575	0.593	0.443	0.23
C[C@@H](c1ccc2nccn2c1)n1nnc2ncc(-c3cnn(C)c3)nc21 [Savolitinib] + CN(CC[C@H](CSC1=CC=CC=C1)NC2=C(C=C(C=C2)S(=O)(=O)NC(=O)C3=CC=C(C=C3)N4CCC(CC4)[C@H](C5=CC=CC=C5C6=CC=C(C=C6)Cl)O)S(=O)(=O)C(F)(F)F)CCO [AZD4320] (first compound max 1 µM, 7x7, partner max 1 µM)			0.528	0.24		0.201				0.325	1	0.256		0.198			0.646			
CC(=O)Nc1cccc(-n2c(=O)n(C3CC3)c(=O)c3c(Nc4ccc(I)cc4F)n(C)c(=O)c(C)c32)c1 [Trametinib] + Cc1nc(-c2cn3c(n2)-c2ccc(-c4cnn(C(C)(C)C(N)=O)c4)cc2OCC3)n(C(C)C)n1 [Taselisib] (first compound max 1 µM, 7x7, partner max 10 µM)	0.73	1		1	0.548	0.496	0.699	0.903	0.99	0.649	0.636	0.997	0.565	0.996	0.921	0.713	0.972	0.65	0.954	0.8
